Laboratory results reported in patent publication US6365407B1, “Culture medium composition useful for induction and proliferation of Taxus calli” (Council of Scientific & Industrial Research, priority 2001, dated 2002).

Legend:
Format in all cases: cell-based, Himalayan Yew
[1] = test system: callus lines of Taxus baccata ssp. Wallichiana Zucc. Pilg.; assay: Taxane/taxol production in callus cultures, HPLC analysis
Source text: (§1) Thus the combination of the modified medium of the present invention with Picloram, Sucrose, Phytagel and Antioxidants is novel and conducive for good callus growth and Taxane production in vitro. The details are described herewith. The present invention also provides a process for the enhanced production of taxol and/or taxane class of molecules in the said callus cultures which comprises inoculating any plant part of the Himalayan yew in the said culture medium for a period of 30 to 60 days in dark and at a temperature ranging between 24-26° C., to obtain the undifferentiated mass of callus culture, extracting the product by conventional solvent extraction methods and analyzing the compounds by HPLC. The stems, needles and seeds (for excision of embryos and endosperms) derived from mature trees of Taxus baccata ssp. Wallichiana Zucc. Pilg., Himalayan Yew were first washed in soap water for five min. followed by 95% ethanol treatment for one min. The alcohol was washed off with four washes of double distilled water. Surface sterilization was done with 0.1% HgCl2 for 10 min. under vacuum followed by six washes with sterile distilled water. Following this, the explants were inoculated aseptically in pre-sterilized plastic dishes (55-mm diameter) containing the medium of the present invention.
The culture medium and method described in the present invention was tested on ex-plants of a number of matures trees (80-100 year old) collected from the Himalayas. The present protocol is applicable to all the ex-plants derived from all these trees of varying ages and genotypes. A series of callus lines were initiated and currently various callus lines of different ages produce the desirable taxanes. A number of callus lines of different ages and derived from diverse parent trees were analyzed by HPLC for detection of taxane class of molecules. […] For each of the callus lines, extractions were performed at least on three different occasions and duplicate HPLC injections were made on separate days to check for the reproducibility of the results.

[2] = test system: callus tissues of Taxus baccata ssp. Wallichiana Zucc. Pilg.; assay: Growth of callus tissues on Picloram supplemented media; details: compared to media supplemented with other auxins reported earlier in the literature
Source text: as §1, with “invention. The medium was prepared by mixing constituents mentioned in Tables 1 and 2. […]” for “invention.”

[3] = test system: ex-plants of Taxus baccata ssp. Wallichiana Zucc. Pilg.; assay: Callus induction from ex-plants of mature trees; details: with or without antioxidants
Source text: as §1, with “invention. The medium was prepared by mixing constituents mentioned in Tables 1 and 2. […]” for “invention.”

Nc1c(Cl)c(Cl)nc(C(=O)O)c1Cl [Picloram]
taxol content of callus ([1]; 0.5-2 mg.l^-1 picloram, callus lines derived from needles of tree nos. 2, 6 and 7): 190-300 μg taxol/g dry weight | increase of taxol content in vitro than in vivo material ([1]; 0.5-2 mg.l^-1 picloram, needles 0.934 μg taxol/g dry weight): 203 to 321 times | increase of taxol content compared to the in vivo material ([1]; 4-6 mg.l^-1 picloram, callus line 6, needles 0.0941 μg taxol/g dry weight): 5300-6200 times | taxol content of callus ([1]; 4-6 mg.l^-1 picloram, callus line 6 derived from needles): 500-590 μg taxol/g dry weight | enhanced Taxane production ([1]; calli grown in Picloram supplemented media, compared to media supplemented with other auxins): 2.0-5.4 times | Taxol production relative to in vivo needle tissues ([1]; highest producer callus): ~5000 times | enhanced growth rate of callus tissues [2]: 1.5-2.0 times | Callus formation observed in ex-plants ([3]; 0.5-2 mg.l^-1 picloram, tree nos. 2, 6 and 7): 90% | Callus formation observed in ex-plants ([3]; 4-6 mg.l^-1 picloram, tree nos. 1, 3 and 4): 90%
